Reference: patent publication US8802209B2, “Multi-layered plastic polymeric container for the storage of pharmaceutical compositions” (Ceva Santé Animale, priority 2007, dated 2014)

Assay: Analysis of additives in the multi-layered plastic container before and after sterilization by irradiation
Type: physicochemical
Conditions: After irradiation - dose of 25 kGy
Procedure: A physico-chemical study of the outer layers made of polypropylene before and after irradiation at 25 kGy was performed.

| Compound | Quantity of additives in polypropylene (ppm) |
| --- | --- |
| CC(C)(C)c1cc(CCC(=O)OCC(COC(=O)CCc2cc(C(C)(C)C)c(O)c(C(C)(C)C)c2)(COC(=O)CCc2cc(C(C)(C)C)c(O)c(C(C)(C)C)c2)COC(=O)CCc2cc(C(C)(C)C)c(O)c(C(C)(C)C)c2)cc(C(C)(C)C)c1O [IRGANOX 1010, pentaerythrityl tetrakis(3-(3,5-di-tert-butyl-4-hydroxyphenyl)-propionate)] | Not detected |
| CC(C)(C)c1cc(Cn2c(=O)n(Cc3cc(C(C)(C)C)c(O)c(C(C)(C)C)c3)c(=O)n(Cc3cc(C(C)(C)C)c(O)c(C(C)(C)C)c3)c2=O)cc(C(C)(C)C)c1O [IRGANOX 3114, 1,3,5-tris(3,5-di-tert-butyl-4-hydroxybenzyl)-s-triazine-2,4,6(1H,3H,5H)-trione] | Not detected |
| CC(C)(C)c1ccc(OP(Oc2ccc(C(C)(C)C)cc2C(C)(C)C)Oc2ccc(C(C)(C)C)cc2C(C)(C)C)c(C(C)(C)C)c1 [IRGAPHOS 168, phosphite tris(2,4-bis(1,1-dimethylethyl)-phenyl)] | Not detected |
